Experimental data published in patent EP2193713A1, “Method for fighting animal pests without damaging pollinating insects” (Bayer CropScience AG, priority 2008, dated 2010).
Read-outs that look alike come from different tables or passages of the source.

Key:
Format in all cases: in vivo
Apis mellifera [1] = assay: Tunnel test / spray application / bees: brood development (share of comb cells); settings: for Brutentwicklung: result in words, 75 und 150 g a.s./ha
Excerpt: Der Test wurde gemäß EPPO (European Plant Protection Organisation) Leitlinie 170 wie folgt durchgeführt:
Über alle Waben eines Bienenstocks wird der jeweilige Anteil an Zellen bestimmt, der durch Pollen, Nektar, Eier, Larven oder Puppen belegt ist bzw. leer ist. […]

Apis mellifera [2] = settings: for Zahl toter Arbeiterbienen: 20 mg a.s./pl.
Excerpt: Die Mortalität von Arbeiterbienen vor dem Bienenstock wird mittels einer Falle für tote Bienen (dead bee trap) bestimmt. Die Falle besteht aus Maschendraht und ist vor dem Bienenstock angebracht. Einzelne, lebende Bienen können die Maschen des Drahts passieren, der Transport toter Bienen durch die Maschen ist nicht möglich, weswegen tote Bienen sich in der Falle ansammeln. Tabelle 1 (siehe auch Figur 1)

Apis mellifera [3] = assay: Tent test / drench application / bees: foraging activity; settings: for Aktivität der Nahrungssuche, Zahl der Bienen / min / 4 m^2: 20 mg a.s./pl.
Excerpt: Der Test wurde wie folgt durchgeführt:

Bombus terrestris [4] = assay: Tent test / drench application / bumblebees: flight activity at the hive; settings: for Flugaktivität am Stock, Zahl der Hummeln / 10 min: 20 mg a.s./pl.
Protocol: (§1) Der Versuch wurde wie folgt durchgeführt:
Die Zahl der Hummeln, die im Zeitraum von 10 min in den Stock geflogen sind oder diesen verlassen haben wurde bestimmt. Tabelle 7 (siehe auch Figur 7)

Bombus terrestris [5] = assay: Tent test / drench application / bumblebees: pollination activity on tomato; settings: for Zahl der Blüten: markierte Blüten / Zahl der Blüten: offene Blüten: 20 mg a.s./pl.
Excerpt: as §1
Bei Tomaten kommt es durch den Besuch von Hummeln zu einer Farbveränderung der Staubgefäße (markierte Blüten). Es wurde die Zahl offener und markierter Blüten bestimmt. Tabelle 8 (siehe auch Figur 8)

[6] = 150 g a.s./ha, 1 Tag vor Applikation
[7] = 150 g a.s./ha, 6 Tage nach Applikation
[8] = 150 g a.s./ha, 14 Tage nach Applikation
[9] = 150 g a.s./ha, 27 Tage nach Applikation
[10] = result in words, 20 mg a.s. / Pflanze, 2 applications (Tag 0 und Tag 14)

SMILES: O=C1C=C(N(Cc2ccc(Cl)nc2)CC(F)F)CO1 [I-5, 4-{[(6-Chlorpyrid-3-yl)methyl](2,2-difluorethyl)amino}furan-2(5H)-on]
- Anteil an Zellen: Puppen (Apis mellifera [1]; 75 g a.s./ha, 27 Tage nach Applikation): 39,4%
- Anteil an Zellen: Eier (Apis mellifera [1]; [6]): 13,6%
- Anteil an Zellen: Larven (Apis mellifera [1]; [6]): 16,4%
- Anteil an Zellen: Leer (Apis mellifera [1]; [6]): 20,8%
- Anteil an Zellen: Nektar (Apis mellifera [1]; [6]): 14,2%
- Anteil an Zellen: Pollen (Apis mellifera [1]; [6]): 1,4%
- Anteil an Zellen: Puppen (Apis mellifera [1]; [6]): 33,6%
- Anteil an Zellen: Eier (Apis mellifera [1]; [7]): 15%
- Anteil an Zellen: Larven (Apis mellifera [1]; [7]): 6,1%
- Anteil an Zellen: Leer (Apis mellifera [1]; [7]): 29,4%
- Anteil an Zellen: Nektar (Apis mellifera [1]; [7]): 14,4%
- Anteil an Zellen: Pollen (Apis mellifera [1]; [7]): 3,9%
- Anteil an Zellen: Puppen (Apis mellifera [1]; [7]): 31,1%
- Anteil an Zellen: Eier (Apis mellifera [1]; [8]): 17,8%
- Anteil an Zellen: Larven (Apis mellifera [1]; [8]): 16,7%
- Anteil an Zellen: Leer (Apis mellifera [1]; [8]): 34,4%
- Anteil an Zellen: Nektar (Apis mellifera [1]; [8]): 12,2%
- Anteil an Zellen: Pollen (Apis mellifera [1]; [8]): 4,2%
- Anteil an Zellen: Puppen (Apis mellifera [1]; [8]): 14,7%
- Anteil an Zellen: Eier (Apis mellifera [1]; [9]): 15,3%
- Anteil an Zellen: Larven (Apis mellifera [1]; [9]): 7,2%
- Anteil an Zellen: Leer (Apis mellifera [1]; [9]): 21,9%
- Anteil an Zellen: Nektar (Apis mellifera [1]; [9]): 16,4%
- Anteil an Zellen: Pollen (Apis mellifera [1]; [9]): 4,2%
- Anteil an Zellen: Puppen (Apis mellifera [1]; [9]): 35%
- Brutentwicklung (Apis mellifera [1]; 6 Tage nach Applikation): keine Änderung
- Brutentwicklung (Apis mellifera [1]; 14 Tage nach Applikation): keine Änderung
- Brutentwicklung (Apis mellifera [1]; 27 Tage nach Applikation): keine Änderung
- Zahl toter Arbeiterbienen (Apis mellifera [2]; 6 DAA a (9:30 Uhr)): 8
- Zahl toter Arbeiterbienen (Apis mellifera [2]; 6 DAA b (14:30 Uhr)): 2
- Zahl toter Arbeiterbienen (Apis mellifera [2]; 7 DAA): 8
- Zahl toter Arbeiterbienen (Apis mellifera [2]; 8 DAA): 0
- Zahl toter Arbeiterbienen (Apis mellifera [2]; 9 DAA): 0
- Zahl toter Arbeiterbienen (Apis mellifera [2]; 10 DAA): 7
- Zahl toter Arbeiterbienen (Apis mellifera [2]; 11 DAA): 2
- Zahl toter Arbeiterbienen (Apis mellifera [2]; 14 DAA): 1
- Zahl toter Arbeiterbienen (Apis mellifera [2]; 16 DAA): 1
- Zahl toter Arbeiterbienen (Apis mellifera [2]; 18 DAA): 2
- Mortalität von Arbeiterbienen vor dem Bienenstock (Apis mellifera [2]; result in words, tent test, drench, I-5 20 mg a.s. / Pflanze, Thiamethoxam 10 mg a.s. / Pflanze): keine Mortalität
- Aktivität der Nahrungssuche, Zahl der Bienen / min / 4 m^2 (Apis mellifera [3]; 5 DAA): 26 Bienen / min / 4 m^2
- Aktivität der Nahrungssuche, Zahl der Bienen / min / 4 m^2 (Apis mellifera [3]; 6 DAA b (14:30 Uhr)): 73 Bienen / min / 4 m^2
- Aktivität der Nahrungssuche, Zahl der Bienen / min / 4 m^2 (Apis mellifera [3]; 7 DAA): 21 Bienen / min / 4 m^2
- Aktivität der Nahrungssuche, Zahl der Bienen / min / 4 m^2 (Apis mellifera [3]; 8 DAA): 70 Bienen / min / 4 m^2
- Aktivität der Nahrungssuche, Zahl der Bienen / min / 4 m^2 (Apis mellifera [3]; 9 DAA): 41 Bienen / min / 4 m^2
- Aktivität der Nahrungssuche, Zahl der Bienen / min / 4 m^2 (Apis mellifera [3]; 11 DAA): 31 Bienen / min / 4 m^2
- Aktivität der Nahrungssuche, Zahl der Bienen / min / 4 m^2 (Apis mellifera [3]; 13 DAA): 86 Bienen / min / 4 m^2
- Aktivität der Nahrungssuche, Zahl der Bienen / min / 4 m^2 (Apis mellifera [3]; 15 DAA): 43 Bienen / min / 4 m^2
- Aktivität der Nahrungssuche, Zahl der Bienen / min / 4 m^2 (Apis mellifera [3]; 16 DAA): 51 Bienen / min / 4 m^2
- Aktivität der Nahrungssuche, Zahl der Bienen / min / 4 m^2 (Apis mellifera [3]; 17 DAA): 98 Bienen / min / 4 m^2
- Aktivität der Nahrungssuche, Zahl der Bienen / min / 4 m^2 (Apis mellifera [3]; 18 DAA): 71 Bienen / min / 4 m^2
- Aktivität der Nahrungssuche (Apis mellifera [3]; result in words, tent test, drench, I-5 20 mg a.s. / Pflanze, Thiamethoxam 10 mg a.s. / Pflanze (13 Tage nach Applikation)): keine Änderung
- Flugaktivität am Stock, Zahl der Hummeln / 10 min (Bombus terrestris [4]; 0 DAA): 9 Hummeln / 10 min
- Flugaktivität am Stock, Zahl der Hummeln / 10 min (Bombus terrestris [4]; 6 DAA after first application): 11 Hummeln / 10 min
- Flugaktivität am Stock, Zahl der Hummeln / 10 min (Bombus terrestris [4]; 8 DAA after first application): 15 Hummeln / 10 min
- Flugaktivität am Stock, Zahl der Hummeln / 10 min (Bombus terrestris [4]; 13 DAA after first application): 11 Hummeln / 10 min
- Flugaktivität am Stock, Zahl der Hummeln / 10 min (Bombus terrestris [4]; 20 DAA after first application): 12 Hummeln / 10 min
- Flugaktivität am Stock, Zahl der Hummeln / 10 min (Bombus terrestris [4]; 23 DAA after first application): 14 Hummeln / 10 min
- Flugaktivität am Stock, Zahl der Hummeln / 10 min (Bombus terrestris [4]; 27 DAA after first application): 11 Hummeln / 10 min
- Flugaktivität am Stock, Zahl der Hummeln / 10 min (Bombus terrestris [4]; 34 DAA after first application): 6 Hummeln / 10 min
- Flugaktivität am Stock, Zahl der Hummeln / 10 min (Bombus terrestris [4]; -1 DAA (before first application)): 13 Hummeln / 10 min
- Flugaktivität der Hummeln (Bombus terrestris [4]; [10]): keine Änderung
- Zahl der Blüten: markierte Blüten (Bombus terrestris [5]; DAA 13 after first application): 59,4
- Zahl der Blüten: offene Blüten (Bombus terrestris [5]; DAA 13 after first application): 67,3
- Zahl der Blüten: markierte Blüten (Bombus terrestris [5]; DAA 22 after first application): 53,7
- Zahl der Blüten: offene Blüten (Bombus terrestris [5]; DAA 22 after first application): 59,3
- Bestäubungsaktivität der Hummeln (Bombus terrestris [5]; [10]): keine Änderung
